Read-outs that look alike come from different tables or passages of the source.
Key:
[1] = cited from earlier work
[2] = cited from earlier work; for solubility (in words): water; for water solubility at room temperature: pure (>95% w/w) compound, room temperature (25° C.)
[3] = Solubility in RO water at room temperature (25° C.) within 5 minutes, soluble if <10 FAU turbidity; assay type: physicochemical; conditions: crystalline material
Experimental: Hereinafter, unless specified otherwise, the solubility of material is determined in RO (reverse osmosis) water at room temperature (25° C.) within 5 minutes.
Hereinafter, where the solubility is expressed as “%”, it to be understood as number of grams of material soluble in 100 grams of solvent.
Hereinafter, the descriptive terms for solubility are provided according to definitions in Combined Compendium of Food Additive Specifications Vol. 4 (FAO JECFA Monographs 1, Rome 2006, page 41).
Procedure: Unless otherwise specified, transfer a known amount of the sample into a flask containing known amount of the specified solvent, shake for no less than 30 sec and no more than 5 min.”
The material is deemed soluble at certain concentration if the produced solution has <10 FAU (Formazin Attenuation Unit) turbidity value.

Row | SMILES | Rate of dissolution in H2O at 25° C. (descriptive) [1] | Rate of dissolution in H2O at 25° C. ([1]; in 5 minutes) | water solubility at room temperature [2] | solubility (in words) [2] | solubility, JECFA descriptive term [3] | other results
1 | C=C1C[C@@]23CC[C@H]4[C@@](C)(CCC[C@@]4(C)C(=O)O[C@@H]4O[C@H](CO)[C@@H](O)[C@H](O)[C@H]4O)[C@@H]2CC[C@]1(O[C@@H]1O[C@H](CO)[C@@H](O)[C@H](O[C@@H]2O[C@H](CO)[C@@H](O)[C@H](O)[C@H]2O)[C@H]1O[C@@H]1O[C@H](CO)[C@@H](O)[C@H](O)[C@H]1O)C3 [Form 1, Rebaudioside A] | Very low |  |  |  |  | Rate of dissolution in H2O at 25° C. ([1]; in 60 minutes): (<0.2% in 60; solubility (in words) ([2]; listed as hydrate form of Rebaudioside A): lowest solubility
2 | C=C1C[C@@]23CC[C@H]4[C@@](C)(CCC[C@@]4(C)C(=O)O[C@@H]4O[C@H](CO)[C@@H](O)[C@H](O)[C@H]4O)[C@@H]2CC[C@]1(O[C@@H]1O[C@H](CO)[C@@H](O)[C@H](O[C@@H]2O[C@H](CO)[C@@H](O)[C@H](O)[C@H]2O)[C@H]1O[C@@H]1O[C@H](CO)[C@@H](O)[C@H](O)[C@H]1O)C3 [Form 2, Rebaudioside A] | Intermediate | (<30% in 5 |  |  |  | 
3 | C=C1C[C@@]23CC[C@H]4[C@@](C)(CCC[C@@]4(C)C(=O)O[C@@H]4O[C@H](CO)[C@@H](O)[C@H](O)[C@H]4O)[C@@H]2CC[C@]1(O[C@@H]1O[C@H](CO)[C@@H](O)[C@H](O[C@@H]2O[C@H](CO)[C@@H](O)[C@H](O)[C@H]2O)[C@H]1O[C@@H]1O[C@H](CO)[C@@H](O)[C@H](O)[C@H]1O)C3 [Form 3, Rebaudioside A] | High | (>30% in |  |  |  | 
4 | C=C1C[C@@]23CC[C@H]4[C@@](C)(CCC[C@@]4(C)C(=O)O[C@@H]4O[C@H](CO)[C@@H](O)[C@H](O)[C@H]4O)[C@@H]2CC[C@]1(O[C@@H]1O[C@H](CO)[C@@H](O)[C@H](O[C@@H]2O[C@H](CO)[C@@H](O)[C@H](O)[C@H]2O)[C@H]1O[C@@H]1O[C@H](CO)[C@@H](O)[C@H](O)[C@H]1O)C3 [Form 4, Rebaudioside A] | High | (>35% in |  |  |  | solubility (in words) ([2]; listed as rebaudioside A amorphous forms): high solubility
5 | C=C1C[C@@]23CC[C@H]4[C@@](C)(CCC[C@@]4(C)C(=O)O[C@@H]4O[C@H](CO)[C@@H](O)[C@H](O)[C@H]4O[C@@H]4O[C@H](CO)[C@@H](O)[C@H](O)[C@H]4O)[C@@H]2CC[C@]1(O[C@@H]1O[C@H](CO)[C@@H](O)[C@H](O[C@@H]2O[C@H](CO)[C@@H](O)[C@H](O)[C@H]2O)[C@H]1O[C@@H]1O[C@H](CO)[C@@H](O)[C@H](O)[C@H]1O)C3 [Rebaudioside D] |  |  | less than 0.05% | very low water solubility | very slightly soluble | 
6 | C=C1C[C@@]23CC[C@H]4[C@@](C)(CCC[C@@]4(C)C(=O)O[C@@H]4O[C@H](CO)[C@@H](O)[C@H](O[C@@H]5O[C@H](CO)[C@@H](O)[C@H](O)[C@H]5O)[C@H]4O[C@@H]4O[C@H](CO)[C@@H](O)[C@H](O)[C@H]4O)[C@@H]2CC[C@]1(O[C@@H]1O[C@H](CO)[C@@H](O)[C@H](O[C@@H]2O[C@H](CO)[C@@H](O)[C@H](O)[C@H]2O)[C@H]1O[C@@H]1O[C@H](CO)[C@@H](O)[C@H](O)[C@H]1O)C3 [Rebaudioside M] |  |  | about 0.1% | very low water solubility | very slightly soluble | solubility (in words) ([2]; listed as rebaudioside M): poor aqueous solubility

— patent publication US11149050B2, “Highly soluble steviol glycosides” (PureCircle USA Inc., priority 2016, dated 2021)
